In patent publication US10738074B2, “Cyclic di-nucleotide compounds as STING agonists” (Merck Sharp & Dohme Corp., priority 2015, dated 2020):
Read-outs that look alike come from different tables or passages of the source.

Experiments:
THP1 cells = test: IFN-β secretion in THP1 cell culture (5 h); format: cell-based, human; conditions: Homo sapiens, THP-1, 5 h
Description: The ability of compounds to stimulate the secretion of interferon-beta from THP1 cells was measured using a human IFN-β AlphaLISA kit (Perkin Elmer, Cat. No. AL265F). The basic protocol is as follows:
A Labcyte Echo 550 acoustic dispenser was used to transfer 120 nL of compound dissolved in DMSO into the wells of an empty, sterile 384-well microplate, (Corning, Cat. No. 3712). THP1 cells (American Type Culture Collection, Cat. No. TIB202) previously frozen in Recovery Medium (Life Technologies, Cat. No. 12648-010) were thawed and immediately diluted 10-fold into 37° C. assay medium (RPMI 1640+L-Glutamine & phenol red, Life Technologies, Cat. No. 11875-085; 0.5% heat inactivated fetal bovine serum, Sigma Aldrich, Cat. No. F4135; 1 mM Sodium Pyruvate, Life Technologies, Cat. No. 11360-070; lx non-essential amino acids; Life Technologies, Cat. No. 11140-050). The cell viability and count was ascertained using a Beckman Coulter V-Cell XR cell counter. The cells suspension was centrifuged at 200×g for 5 min at RT. Cells were resuspended to a density of 0.8×10^6/mL in 37° C. assay medium. Subsequent liquid transfers were performed using either a Matrix electronic multichannel pipette or an Agilent Bravo Automated Liquid Handling Platform.
The assay was started by dispensing 40 μL of the previously prepared cell suspension into the wells of the plate containing compounds. After 5 h incubation at 37° C., 5% CO2 in a humidified atmosphere, the plate of cells and compounds was centrifuged at 200×g for 5 min at RT. From each well, 5 μL of supernatant was transferred into corresponding wells of a white 384-well plate (Perkin Elmer, Cat. No. 6005620). To these supernatant-containing wells was added 10 μL of 5× Anti-Analyte Acceptor beads (50 μg/mL of AlphaLISA HiBlock Buffer) and incubated for 30 min at RT while shaking on an orbital plate shaker. To each well was added 10 μL of 5× Biotinylated Antibody Anti-analyte (5 nM in AlphaLISA HiBlock Buffer) and incubated on an orbital plate shaker for 60 min at RT or overnight at 4° C. To each well was added 25 μL of 2× SA-Donor beads (80 μg/mL in AlphaLISA HiBlock Buffer) and incubated for 30-45 min at RT in the dark while shaking on an orbital plate shaker. The plate was then read on a Perkin Elmer Envision (λex=680 nm, λem=[…]). The percent effect of the AlphaLISA signal at each compound concentration was calculated based on 30 uM cGAMP positive controls and 0.3% DMSO negative controls. The plot of percent effect versus the log of compound concentration was fit with a 4-parameter concentration response equation to calculate EC50 values. The test compounds were tested at concentrations 30000, 10000, 3333, 1111, 370.4, 123.4, 41.2, 13.7, 4.6, and 1.5 nM with 0.3% residual DMSO.
Compounds of the disclosure were evaluated for IFN-β secretion in THP1 cell culture as described above. The following table tabulates the biological data for these compounds as percent activation relative to 2′3′-cGAMP at the 30 μM concentration.

full-length HAQ STING = full-length HAQ STING (Homo sapiens (Human), UniProt Q86WV6, G230A/H232R/R293Q/R71H); test: 3H-cGAMP filtration binding assay (HAQ STING); conditions: competition with tritiated cGAMP, HAQ STING membrane
full-length HAQ STING, sequence (Q86WV6 other isoform, or with tags, fused parts or gaps, stated change not applied): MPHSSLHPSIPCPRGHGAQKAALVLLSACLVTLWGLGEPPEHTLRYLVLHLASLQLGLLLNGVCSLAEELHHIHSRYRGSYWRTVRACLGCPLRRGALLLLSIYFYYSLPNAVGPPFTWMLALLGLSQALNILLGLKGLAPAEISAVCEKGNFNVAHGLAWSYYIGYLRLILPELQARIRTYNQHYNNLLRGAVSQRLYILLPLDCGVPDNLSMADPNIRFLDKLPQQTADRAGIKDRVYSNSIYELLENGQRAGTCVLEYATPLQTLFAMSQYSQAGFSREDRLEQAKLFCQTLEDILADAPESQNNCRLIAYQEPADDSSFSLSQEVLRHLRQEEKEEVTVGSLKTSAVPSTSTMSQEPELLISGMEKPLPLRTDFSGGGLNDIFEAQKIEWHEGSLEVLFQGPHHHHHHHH
Excerpt: (§1) The ability of compounds to bind STING is quantified by the ability to compete with tritiated cGAMP ligand for human STING receptor membrane using a radioactive filter-binding assay. The binding assay employs STING receptor obtained from Hi-Five cell membranes overexpressing full-length HAQ STING prepared in-house and tritiated cGAMP ligand also purified in-house.
as §1, with “their” for “the”, “Trichoplusia ni” for “Hi-Five”, “membranes (Tni; Expression Systems, cat #94-002F, www.exrpressionsystems.com)” for “membranes”
The basic HAQ STING filtration assay protocol is as follows:
Compound and membrane then preincubated for 60 min at RT to allow compound binding to equilibrate. Following equilibration, 8 nM of [^3H] c-GAMP ligand was prepared by diluting into assay buffer, and 50 uL of this working stock was then manually added to each well of the assay plate. […] The filter plates were then dried at 55° C. for 30 min using a pressurized VWR oven before 30 uL of Ultima GoldF scintillate was added to each well. Tritium levels for each reaction well were then measured using a PerkinElmer TopCount plate reader.
After normalization to controls, the percent activity for each compound concentration was calculated by measuring the amount of remaining radioactivity. The plot of percent activity versus the log of compound concentration was fit with a 4-parameter dose response equation to calculate EC50 values.

[1] = IFN-β secretion, THP1 cells, 5 h, 30 μM, read-out: % Effect at 30 μM relative to 2′3′-cGAMP

| EC50 (full-length HAQ STING) | SMILES | activation at 30 µM (THP1 cells; [1]) | activation at 30 µM (THP1 cells; read-out: % Effect at 30 μM relative to 2′3′-cGAMP, IFN-β secretion, THP1 cells, 5 h, 30 μM) |
| --- | --- | --- | --- |
| 1.6 nM | Nc1nc2c(ncn2[C@@H]2O[C@@H]3COP(=O)(O)O[C@@H]4[C@H](N)[C@@H](COP(=O)(O)O[C@@H]2[C@@H]3O)O[C@H]4n2cnc3c(N)ncnc32)c(=O)[nH]1 [Example 33, 2-amino-9-[(1R,6R,8R,9R,14S,16R,17R,18R)-17-amino-16-(6-amino-9H-purin-9-yl)-3,11,18-trihydroxy-3,11-dioxido-2,4,7,10,12,15-hexaoxa-3,11-diphosphatricyclo[12.2.1.1^6,9]octadec-8-yl]-1,9-dihydro-6H-purin-6-one] | 140% |  |
| 11.2 nM | Nc1nc2c(ncn2[C@@H]2O[C@@H]3COP(=O)(O)O[C@@H]4[C@@H](F)[C@@H](COP(=O)(O)O[C@@H]2[C@@H]3F)O[C@H]4n2cnc3c(N)ncnc32)c(=O)[nH]1 [Example 13, 2-amino-9-[(1S,6R,8R,9S,14R,16R,17S,18R)-16-(6-amino-9H-purin-9-yl)-17,18-difluoro-3,11-dihydroxy-3,11-dioxido-2,4,7,10,12,15-hexaoxa-3,11-diphosphatricyclo[12.2.1.1^6,9]octadec-8-yl]-1,9-dihydro-6H-purin-6-one] | 128% |  |
| 102 nM | C[C@@H]1OP(=O)(O)O[C@@H]2[C@H](F)[C@@H](COP(=O)(O)O[C@@H]3[C@H](O)[C@@H]1O[C@H]3n1cnc3c(N)ncnc31)O[C@H]2n1cnc2c(=O)[nH]c(N)nc21 [Example 8, 2-amino-9-[(1R,6R,8R,9S,13S,14S,16R,17R,18R)-16-(6-amino-9H-purin-9-yl)-18-fluoro-3,11,17-trihydroxy-13-methyl-3,11-dioxido-2,4,7,10,12,15-hexaoxa-3,11-diphosphatricyclo[12.2.1.16,9]octadec-8-yl]-1,9-dihydro-6H-purin-6-one] | 36% |  |
| 1.8 nM | Nc1nc2c(ncn2[C@@H]2O[C@@H]3COP(=O)(O)O[C@@H]4[C@H](F)[C@@H](COP(=O)(O)O[C@@H]2[C@@H]3O)O[C@H]4n2cnc3c(N)ncnc32)c(=O)[nH]1 [Example 4, 2-amino-9-[(1S,6R,8R,9R,14R,16R,17R,18R)-16-(6-amino-9H-purin-9-yl)-17-fluoro-3,11,18-trihydroxy-3,11-dioxido-2,4,7,10,12,15-hexaoxa-3,11-diphosphatricyclo[12.2.1.1^6,9]octadec-8-yl]-1,9-dihydro-6H-purin-6-one] | 104% |  |
| 1.9 nM | Nc1nc2c(ncn2[C@@H]2O[C@@H]3COP(=O)(O)O[C@@H]4[C@H](O)[C@@H](COP(=O)(O)O[C@@H]2[C@@H]3N)O[C@H]4n2cnc3c(N)ncnc32)c(=O)[nH]1 [Example 32, 2-amino-9-[(1R,6S,8R,9R,14R,16R,17R,18R)-18-amino-16-(6-amino-9H-purin-9-yl)-3,11,17-trihydroxy-3,11-dioxido-2,4,7,10,12,15-hexaoxa-3,11-diphosphatricyclo[12.2.1.1^6,9]octadec-8-yl]-1,9-dihydro-6H-purin-6-one] |  |  |
| 19 nM | Nc1nc2c(ncn2[C@@H]2O[C@@H]3COP(=O)(O)O[C@@H]4C[C@@H](COP(=O)(O)O[C@@H]2[C@@H]3O)O[C@H]4n2cnc3c(N)ncnc32)c(=O)[nH]1 [Example 1, 2-amino-9-[(1R,6R,8R,9R,14S,16R,18R)-16-(6-amino-9H-purin-9-yl)-3,11,18-trihydroxy-3,11-dioxido-2,4,7,10,12,15-hexaoxa-3,11-diphosphatricyclo[12.2.1.1^6,9]octadec-8-yl]-1,9-dihydro-6H-purin-6-one] | 121% |  |
| 3.6 nM | Nc1nc2c(ncn2[C@@H]2O[C@@H]3COP(=O)(O)O[C@@H]4[C@H](O)[C@@H](COP(=O)(O)O[C@@H]2[C@@H]3F)O[C@H]4n2cnc3c(N)ncnc32)c(=O)[nH]1 [Example 3, 2-amino-9-[(1R,6R,8R,9S,14R,16R,17R,18R)-16-(6-amino-9H-purin-9-yl)-18-fluoro-3,11,17-trihydroxy-3,11-dioxido-2,4,7,10,12,15-hexaoxa-3,11-diphosphatricyclo[12.2.1.1^6,9]octadec-8-yl]-1,9-dihydro-6H-purin-6-one] | 150% |  |

Second part, the compound before the results:

| SMILES | EC50 (full-length HAQ STING) | activation at 30 µM (THP1 cells; [1]) | activation at 30 µM (THP1 cells; read-out: % Effect at 30 μM relative to 2′3′-cGAMP, IFN-β secretion, THP1 cells, 5 h, 30 μM) |
| --- | --- | --- | --- |
| Nc1nc2c(ncn2[C@@H]2O[C@@H]3COP(=O)(S)O[C@@H]4[C@H](O)[C@@H](COP(=O)(S)O[C@@H]2[C@@H]3O)O[C@H]4n2cnc3c(N)ncnc32)c(=O)[nH]1 (stereo partly drawn) [Example 14, 2-amino-9-[(1R,6R,8R,9R,14R,16R,17R,18R)-16-(6-amino-9H-purin-9-yl)-17,18-dihydroxy-3,11-dioxido-3,11-disulfanyl-2,4,7,10,12,15-hexaoxa-3,11-diphosphatricyclo[12.2.1.1^6,9]octadec-8-yl]-1,9-dihydro-6H-purin-6-one] |  | 150% |  |
| [N-]=[N+]=N[C@H]1[C@H]2OP(O)(=S)OC[C@H]3O[C@@H](n4cnc5c(=O)[nH]c(N)nc54)[C@H](OP(O)(=S)OC[C@H]1O[C@H]2n1cnc2c(N)ncnc21)[C@@H]3F (single isomer, unassigned) [Example 18] |  |  | 118% |
| Nc1nc2c(ncn2[C@@H]2O[C@@H]3COP(=O)(S)OC4C(O)[C@@H](COP(=O)(S)OC2[C@@H]3O)O[C@H]4n2cnc3c(N)ncnc32)c(=O)[nH]1 (stereo in doubt) [Example 15, 2-amino-9-[(1R,6R,8R,9R,14R,16R,17R,18R)-16-(6-amino-9H-purin-9-yl)-17,18-dihydroxy-3,11-dioxido-3,11-disulfanyl-2,4,7,10,12,15-hexaoxa-3,11-diphosphatricyclo[12.2.1.1^6,9]octadec-8-yl]-1,9-dihydro-6H-purin-6-one] |  | 132% |  |
| Nc1nc2c(ncn2[C@@H]2O[C@@H]3COP(=O)(S)O[C@@H]4[C@H](O)[C@@H](COP(=O)(S)O[C@@H]2[C@@H]3O)O[C@H]4n2cnc3c(=O)[nH]c(N)nc32)c(=O)[nH]1 (single isomer, unassigned) [Example 25] |  | 89% |  |
| Nc1nc2c(ncn2[C@@H]2O[C@@H]3COP(=O)(O)O[C@@H]4[C@H](F)[C@@H](COP(=O)(O)O[C@@H]2C3)O[C@H]4n2cnc3c(N)ncnc32)c(=O)[nH]1 [Example 10, 2-amino-9-[(1S,6S,8R,9R,14R,16R,17R)-16-(6-amino-9H-purin-9-yl)-17-fluoro-3,11-dihydroxy-3,11-dioxido-2,4,7,10,12,15-hexaoxa-3,11-diphosphatricyclo[12.2.1.1^6,9]octadec-8-yl]-1,9-dihydro-6H-purin-6-one] |  | 87% |  |
